Test results taken from patent publication US6737383B1, “Herbicidal oxadiazolidines” (priority 1999, dated 2004).

Columns and labels:
sugar beet = experiment: Test B pre/postemergence sugar beet; format: in vivo, Beta vulgaris
In short: (§1)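 Herbicidal effect was estimated by eye on a ten-point control scale after plants spent twelve to sixteen days in a greenhouse following soil or foliar treatment. Foliar sprays targeted plants at one to four leaves; all doses were formulated in a non-phytotoxic solvent with surfactant.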

wild oat = experiment: Test B pre/postemergence wild oat; format: in vivo, Avena fatua
In short: as §1

smallflower flatsedge = experiment: Test B flood test smallflower flatsedge; format: in vivo, Cyperus difformis
In short: (§2)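 Each value is a visual injury score relative to controls, with 10 meaning complete control and 0 no effect. Evaluation took place twelve to sixteen days after the 2-leaf-stage plants were treated and kept in the greenhouse.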

wheat = experiment: Test B pre/postemergence wheat; format: in vivo, Triticum aestivum
In short: as §1

velvetleaf = experiment: Test B pre/postemergence velvetleaf; format: in vivo, Abutilon theophrasti
In short: as §1

rape = experiment: Test B pre/postemergence rape; format: in vivo, Brassica napus
In short: as §1

giant foxtail = experiment: Test B pre/postemergence giant foxtail; format: in vivo, Setaria faberii
In short: as §1

rice = experiment: Test B flood test rice; format: in vivo, Oryza sativa
In short: as §2

blackgrass = experiment: Test B pre/postemergence blackgrass; format: in vivo, Alopecurus myosuroides
In short: as §1

bamyardgrass = experiment: Test B flood test barnyardgrass; format: in vivo, Echinochloa crus-galli
In short: as §2

cocklebur = experiment: Test B pre/postemergence cocklebur; format: in vivo, Xanthium strumarium
In short: as §1

morningglory = experiment: Test B pre/postemergence morningglory; format: in vivo, Ipomoea hederacea
In short: as §1

purple nutsedge = experiment: Test B pre/postemergence purple nutsedge; format: in vivo, Cyperus rotundus; details: Postemergence
In short: as §1

soybean = experiment: Test B pre/postemergence soybean; format: in vivo, Glycine max
In short: as §1

duck salad = experiment: Test B flood test duck salad; format: in vivo, Heteranthera limosa
In short: as §2

pigweed = experiment: Test B pre/postemergence pigweed; format: in vivo, Amaranthus retroflexus
In short: as §1

[1] = Preemergence, Rate 62 g/ha, scale of 0 to 10 where 0 is no effect and 10 is complete control
[2] = Preemergence, Rate 250 g/ha, scale of 0 to 10 where 0 is no effect and 10 is complete control
[3] = Preemergence, Rate 500 g/ha, scale of 0 to 10 where 0 is no effect and 10 is complete control
[4] = Rate 62 g/ha, Postemergence, scale of 0 to 10 where 0 is no effect and 10 is complete control
[5] = Rate 125 g/ha, Preemergence, scale of 0 to 10 where 0 is no effect and 10 is complete control
[6] = Rate 500 g/ha, Postemergence, scale 0 to 10, 0 no effect, 10 complete control
[7] = Rate 62 g/ha, headed Pre-emergence (flood test species), scale 0 to 10 (0 no effect, 10 complete control)
[8] = Rate 125 g/ha, Pre-emergence, flood test species, scale 0 to 10 where 0 is no effect and 10 is complete control
[9] = Rate 250 g/ha, Pre-emergence, flood-test species, scale 0 to 10, 0 is no effect, 10 is complete control
[10] = Rate 500 g/ha, Pre-emergence, flood test species, scale 0 to 10 (0 no effect, 10 complete control)
[11] = Rate 125 g/ha, Postemergence, scale 0 to 10

[2H]C([2H])([2H])n1c(=O)on(C(=O)N(c2ccc(F)cc2)C(C)C)c1=O [Compound 245]
3: Sugarbeets plant response rating (sugar beet; [1]) | Wild oats plant response rating (wild oat; [1]) | Velvetleaf plant response rating (velvetleaf; [4]) | Rape plant response rating (rape; [1]) | Redroot pigweed plant response rating (pigweed; [4])
6: Wheat plant response rating (wheat; [1]) | Wheat plant response rating (wheat; [5]) | Plant response rating, Cocklebur (cocklebur; [3]) | Morningglory plant response rating (morningglory; [2]) | Plant response rating, Morningglory (morningglory; [3])
7: Sugarbeets plant response rating (sugar beet; [6]) | Wheat plant response rating (wheat; [2]) | Velvetleaf plant response rating (velvetleaf; [1]) | Velvetleaf plant response rating (velvetleaf; [5]) | Velvetleaf plant response rating (velvetleaf; [6]) | Blackgrass plant response rating (blackgrass; [11]) | Plant response rating (0 to 10; 0 is no effect, 10 is complete control), Blackgrass (blackgrass; Rate 250 g/ha, Postemergence)
0: Wild oats plant response rating (wild oat; [4]) | S. Flatsedge plant response rating (smallflower flatsedge; [7]) | S. Flatsedge plant response rating (smallflower flatsedge; [8]) | S. Flatsedge plant response rating (smallflower flatsedge; [9]) | S. Flatsedge plant response rating (smallflower flatsedge; [10]) | Rape plant response rating (rape; [4]) | Rice plant response rating (rice; [7]) | Rice plant response rating (rice; [8]) | Rice plant response rating (rice; [9]) | Rice plant response rating (rice; [10]) | Barnyardgrass plant response rating (bamyardgrass; [7]) | Barnyardgrass plant response rating (bamyardgrass; [8]) | Barnyardgrass plant response rating (bamyardgrass; [9]) | Barnyardgrass plant response rating (bamyardgrass; [10]) | Cocklebur plant response rating (cocklebur; [1]) | Cocklebur plant response rating (cocklebur; [4]) | Cocklebur plant response rating (cocklebur; [11]) | Plant response rating (0 to 10; 0 is no effect, 10 is complete control), Cocklebur (cocklebur; Rate 250 g/ha, Postemergence) | Morningglory plant response rating (morningglory; [1]) | Nutsedge plant response rating (purple nutsedge; Rate 62 g/ha, scale of 0 to 10 where 0 is no effect and 10 is complete control) | Plant response rating (0 to 10; 0 is no effect, 10 is complete control), Nutsedge (purple nutsedge; Rate 250 g/ha) | Nutsedge plant response rating (purple nutsedge; Rate 500 g/ha, scale 0 to 10, 0 no effect, 10 complete control) | Soybean plant response rating (soybean; [1]) | Ducksalad plant response rating (duck salad; [7]) | Ducksalad plant response rating (duck salad; [8]) | Ducksalad plant response rating (duck salad; [9]) | Ducksalad plant response rating (duck salad; [10])
1: Sugarbeets plant response rating (sugar beet; [4]) | Cocklebur plant response rating (cocklebur; [6]) | Morningglory plant response rating (morningglory; [5])
2: Plant response rating (0 to 10; 0 is no effect, 10 is complete control), Rape (rape; Rate 250 g/ha, Postemergence) | Cocklebur plant response rating (cocklebur; [2]) | Cocklebur plant response rating (cocklebur; [5]) | Soybean plant response rating (soybean; [2]) | Soybean plant response rating (soybean; [4]) | Soybean plant response rating (soybean; [5])
5: Wild oats plant response rating (wild oat; [5]) | Rape plant response rating (rape; [6]) | Giant foxtail plant response rating (giant foxtail; [4]) | Morningglory plant response rating (morningglory; [4]) | Soybean plant response rating (soybean; [6])
9: Plant response rating, Wheat (wheat; [3]) | Giant foxtail plant response rating (giant foxtail; [1]) | Giant foxtail plant response rating (giant foxtail; [5]) | Plant response rating (0 to 10; 0 is no effect, 10 is complete control), Morningglory (morningglory; Rate 250 g/ha, Postemergence) | Morningglory plant response rating (morningglory; [6]) | Plant response rating (0 to 10; 0 is no effect, 10 is complete control), Redroot pigweed (pigweed; Rate 250 g/ha, Postemergence) | Redroot pigweed plant response rating (pigweed; [6])
10: Sugarbeets plant response rating (sugar beet; [2]) | Plant response rating, Sugarbeets (sugar beet; [3]) | Wild oats plant response rating (wild oat; [2]) | Plant response rating, Wild oats (wild oat; [3]) | Velvetleaf plant response rating (velvetleaf; [2]) | Plant response rating, Velvetleaf (velvetleaf; [3]) | Rape plant response rating (rape; [2]) | Plant response rating, Rape (rape; [3]) | Giant foxtail plant response rating (giant foxtail; [2]) | Plant response rating, Giant foxtail (giant foxtail; [3]) | Blackgrass plant response rating (blackgrass; [1]) | Blackgrass plant response rating (blackgrass; [2]) | Plant response rating, Blackgrass (blackgrass; [3]) | Blackgrass plant response rating (blackgrass; [5]) | Redroot pigweed plant response rating (pigweed; [2]) | Plant response rating, Redroot pigweed (pigweed; [3]) | Redroot pigweed plant response rating (pigweed; [5])
4: Wheat plant response rating (wheat; [4]) | Rape plant response rating (rape; [5]) | Blackgrass plant response rating (blackgrass; [4])
8: Sugarbeets plant response rating (sugar beet; [5]) | Wild oats plant response rating (wild oat; [6]) | Wheat plant response rating (wheat; [6]) | Plant response rating (0 to 10; 0 is no effect, 10 is complete control), Giant foxtail (giant foxtail; Rate 250 g/ha, Postemergence) | Giant foxtail plant response rating (giant foxtail; [6]) | Blackgrass plant response rating (blackgrass; [6]) | Plant response rating, Soybean (soybean; [3]) | Redroot pigweed plant response rating (pigweed; [1])
